Laboratory results from ChEMBL document CHEMBL3045679, “Microwave-assisted synthesis and pharmacological studies of novel 5-deazaalloxazine derivatives” (2012).
Values after ≈ are worked out from the molar mass of the structure shown. Active and inactive are the calls of the source. No cut-off for these calls is given here.

Experiments:
Escherichia coli [1] = assay: Antibacterial activity against Escherichia coli NCIM 2065 at 500 ug/disk after 24 hr by disk diffusion method; assay type: functional
Klebsiella aerogenes [2] = assay: Antibacterial activity against Enterobacter aerogenes NCIM 2239 at 1000 ug/disk after 24 hr by disk diffusion method; assay type: functional; details: NCIM 2239, 24 h, read-out: DIZ
Aspergillus niger [3] = assay: Antifungal activity against Aspergillus niger NCIM 1196 at 500 ug/disk after 72 hr by disk diffusion method; assay type: functional
Escherichia coli [4] = assay: Antibacterial activity against Escherichia coli NCIM 2065 after 24 hr by broth dilution assay; assay type: functional; details: NCIM 2065, 24 h
Penicillium chrysogenum [5] = assay: Antifungal activity against Penicillium chrysogenum NCIM 707 at 500 ug/disk after 72 hr by disk diffusion method; assay type: functional; details: NCIM 707, 72 h, read-out: DIZ
Rhodotorula mucilaginosa [6] = assay: Antifungal activity against Rhodotorula mucilaginosa NCIM 3174 after 72 hr by broth dilution assay; assay type: functional; details: NCIM 3174, 72 h
Klebsiella aerogenes [7] = assay: Antibacterial activity against Enterobacter aerogenes NCIM 2239 after 24 hr by broth dilution assay; assay type: functional; details: NCIM 2239, 24 h
Bacillus subtilis [8] = assay: Antibacterial activity against Bacillus subtilis NCIM 2063 at 1000 ug/disk after 24 hr by disk diffusion method; assay type: functional; details: NCIM 2063, 24 h, read-out: DIZ
Streptomyces albus [9] = assay: Antibacterial activity against Streptomyces albus NCIM 2178 at 1000 ug/disk after 24 hr by disk diffusion method; assay type: functional; details: NCIM 2178, 24 h, read-out: DIZ
Bacillus cereus [10] = assay: Antibacterial activity against Bacillus cereus NCIM 2155 after 24 hr by broth dilution assay; assay type: functional; details: NCIM 2155, 24 h
Lipomyces lipofer [11] = assay: Antifungal activity against Lipomyces lipofer NCIM 3252 at 1000 ug/disk after 72 hr by disk diffusion method; assay type: functional; details: NCIM 3252, 72 h, read-out: DIZ
Pseudomonas aeruginosa [12] = assay: Antibacterial activity against Pseudomonas aeruginosa NCIM 2200 at 1000 ug/disk after 24 hr by disk diffusion method; assay type: functional; details: NCIM 2200, 24 h, read-out: DIZ
Aspergillus flavus [13] = assay: Antifungal activity against Aspergillus flavus NCIM 535 at 500 ug/disk after 72 hr by disk diffusion method; assay type: functional
Penicillium chrysogenum [14] = assay: Antifungal activity against Penicillium chrysogenum NCIM 707 at 1000 ug/disk after 72 hr by disk diffusion method; assay type: functional; details: NCIM 707, 72 h, read-out: DIZ
Candida albicans [15] = assay: Antifungal activity against Candida albicans NCIM 3471 at 500 ug/disk after 72 hr by disk diffusion method; assay type: functional
Candida albicans [16] = assay: Antifungal activity against Candida albicans NCIM 3471 after 72 hr by broth dilution assay; assay type: functional; details: NCIM 3471, 72 h
Bacillus subtilis [17] = assay: Antibacterial activity against Bacillus subtilis NCIM 2063 after 24 hr by broth dilution assay; assay type: functional; details: NCIM 2063, 24 h
Escherichia coli [18] = assay: Antibacterial activity against Escherichia coli NCIM 2065 at 1000 ug/disk after 24 hr by disk diffusion method; assay type: functional; details: NCIM 2065, 24 h, read-out: DIZ
Pseudomonas aeruginosa [19] = assay: Antibacterial activity against Pseudomonas aeruginosa NCIM 2200 after 24 hr by broth dilution assay; assay type: functional; details: NCIM 2200, 24 h
Bacillus cereus [20] = assay: Antibacterial activity against Bacillus cereus NCIM 2155 at 500 ug/disk after 24 hr by disk diffusion method; assay type: functional; details: NCIM 2155, 24 h, read-out: DIZ
Lipomyces lipofer [21] = assay: Antifungal activity against Lipomyces lipofer NCIM 3252 at 500 ug/disk after 72 hr by disk diffusion method; assay type: functional; details: NCIM 3252, 72 h, read-out: DIZ
Bacillus subtilis [22] = assay: Antibacterial activity against Bacillus subtilis NCIM 2063 at 500 ug/disk after 24 hr by disk diffusion method; assay type: functional
Rhodotorula mucilaginosa [23] = assay: Antifungal activity against Rhodotorula mucilaginosa NCIM 3174 at 1000 ug/disk after 72 hr by disk diffusion method; assay type: functional; details: NCIM 3174, 72 h, read-out: DIZ
Lipomyces lipofer [24] = assay: Antifungal activity against Lipomyces lipofer NCIM 3252 after 72 hr by broth dilution assay; assay type: functional; details: NCIM 3252, 72 h
Klebsiella aerogenes [25] = assay: Antibacterial activity against Enterobacter aerogenes NCIM 2239 at 500 ug/disk after 24 hr by disk diffusion method; assay type: functional
Rhodotorula mucilaginosa [26] = assay: Antifungal activity against Rhodotorula mucilaginosa NCIM 3174 at 500 ug/disk after 72 hr by disk diffusion method; assay type: functional; details: NCIM 3174, 72 h, read-out: DIZ
Streptomyces albus [27] = assay: Antibacterial activity against Streptomyces albus NCIM 2178 at 500 ug/disk after 24 hr by disk diffusion method; assay type: functional, organism-based
Aspergillus flavus [28] = assay: Antifungal activity against Aspergillus flavus NCIM 535 at 1000 ug/disk after 72 hr by disk diffusion method; assay type: functional; details: NCIM 535, 72 h, read-out: DIZ
Candida albicans [29] = assay: Antifungal activity against Candida albicans NCIM 3471 at 1000 ug/disk after 72 hr by disk diffusion method; assay type: functional; details: NCIM 3471, 72 h, read-out: DIZ
Pseudomonas aeruginosa [30] = assay: Antibacterial activity against Pseudomonas aeruginosa NCIM 2200 at 500 ug/disk after 24 hr by disk diffusion method; assay type: functional
Streptomyces albus [31] = assay: Antibacterial activity against Streptomyces albus NCIM 2178 after 24 hr by broth dilution assay; assay type: functional; details: NCIM 2178, 24 h
Aspergillus niger [32] = assay: Antifungal activity against Aspergillus niger NCIM 1196 at 1000 ug/disk after 72 hr by disk diffusion method; assay type: functional; details: NCIM 1196, 72 h, read-out: DIZ
Bacillus cereus [33] = assay: Antibacterial activity against Bacillus cereus NCIM 2155 at 1000 ug/disk after 24 hr by disk diffusion method; assay type: functional; details: NCIM 2155, 24 h, read-out: DIZ
Penicillium chrysogenum [34] = assay: Antifungal activity against Penicillium chrysogenum NCIM 707 after 72 hr by broth dilution assay; assay type: functional; details: NCIM 707, 72 h
Aspergillus flavus [35] = assay: Antifungal activity against Aspergillus flavus NCIM 535 after 72 hr by broth dilution assay; assay type: functional; details: NCIM 535, 72 h

With `O=c1[nH]c(=S)[nH]c2nc3ccc(Br)cc3cc12` the “diameter of the inhibition zone (DIZ)” value (Escherichia coli [1]) was “inactive”, the zone of inhibition at 1000 µg/disc (Klebsiella aerogenes [2]) was 8 mm and the “diameter of the inhibition zone (DIZ)” value (Aspergillus niger [3]) was “inactive”. For the same molecule, the MIC (Escherichia coli [4]) was 125 µg/mL (≈ 406 µM), the zone of inhibition at 500 µg/disc (Penicillium chrysogenum [5]) was 8 mm and the MIC (Rhodotorula mucilaginosa [6]) was 125 µg/mL (≈ 406 µM). The MIC (Klebsiella aerogenes [7]) was 125 µg/mL (≈ 406 µM), the zone of inhibition at 1000 µg/disc (Bacillus subtilis [8]) was 14 mm and the zone of inhibition at 1000 µg/disc (Streptomyces albus [9]) was 12 mm. The MIC (Bacillus cereus [10]) was 15.6 µg/mL (≈ 50.6 µM), the zone of inhibition at 1000 µg/disc (Lipomyces lipofer [11]) was 12 mm and the zone of inhibition at 1000 µg/disc (Pseudomonas aeruginosa [12]) was 12 mm. The “diameter of the inhibition zone (DIZ)” value (Aspergillus flavus [13]) was “inactive”, the zone of inhibition at 1000 µg/disc (Penicillium chrysogenum [14]) was 12 mm and the “diameter of the inhibition zone (DIZ)” value (Candida albicans [15]) was “inactive”. For the same molecule, the MIC (Candida albicans [16]) was 125 µg/mL (≈ 406 µM), the MIC (Bacillus subtilis [17]) was 7.8 µg/mL (≈ 25.3 µM) and the zone of inhibition at 1000 µg/disc (Escherichia coli [18]) was 10 mm. It also gave an MIC (Pseudomonas aeruginosa [19]) of 125 µg/mL (≈ 406 µM), a zone of inhibition at 500 µg/disc (Bacillus cereus [20]) of 10 mm and a zone of inhibition at 500 µg/disc (Lipomyces lipofer [21]) of 8 mm. The zone of inhibition at 500 µg/disc (Bacillus subtilis [22]; NCIM 2063, 24 h, read-out: DIZ) was 12 mm, the zone of inhibition at 1000 µg/disc (Rhodotorula mucilaginosa [23]) was 12 mm and the MIC (Lipomyces lipofer [24]) was 62.5 µg/mL (≈ 203 µM). The “diameter of the inhibition zone (DIZ)” value (Klebsiella aerogenes [25]) was “inactive”, the zone of inhibition at 500 µg/disc (Rhodotorula mucilaginosa [26]) was 7 mm and the “diameter of the inhibition zone (DIZ)” value (Streptomyces albus [27]) was “inactive”. For the same molecule, the zone of inhibition at 1000 µg/disc (Aspergillus flavus [28]) was 9 mm, the zone of inhibition at 1000 µg/disc (Candida albicans [29]) was 12 mm and the “diameter of the inhibition zone (DIZ)” value (Pseudomonas aeruginosa [30]) was “inactive”. It also gave an MIC (Streptomyces albus [31]) of 62.5 µg/mL (≈ 203 µM), a zone of inhibition at 1000 µg/disc (Aspergillus niger [32]) of 10 mm and a zone of inhibition at 1000 µg/disc (Bacillus cereus [33]) of 15 mm.

In the case of `O=c1[nH]c(=S)[nH]c2nc3ccccc3cc12`, the zone of inhibition at 500 µg/disc (Escherichia coli [1]; NCIM 2065, 24 h, read-out: DIZ) was 9 mm, the zone of inhibition at 1000 µg/disc (Klebsiella aerogenes [2]) was 13 mm and the “diameter of the inhibition zone (DIZ)” value (Aspergillus niger [3]) was “inactive”. It also gave an MIC (Escherichia coli [4]) of 31.2 µg/mL (≈ 136 µM), a zone of inhibition at 500 µg/disc (Penicillium chrysogenum [5]) of 10 mm and an MIC (Rhodotorula mucilaginosa [6]) of 15.6 µg/mL (≈ 68 µM). It also gave an MIC (Klebsiella aerogenes [7]) of 3.9 µg/mL (≈ 17 µM), a zone of inhibition at 1000 µg/disc (Bacillus subtilis [8]) of 10 mm and an MIC (Penicillium chrysogenum [34]) of 7.8 µg/mL (≈ 34 µM). The zone of inhibition at 1000 µg/disc (Streptomyces albus [9]) was 12 mm, the MIC (Aspergillus flavus [35]) was 7.8 µg/mL (≈ 34 µM) and the MIC (Bacillus cereus [10]) was 31.2 µg/mL (≈ 136 µM). It also gave a zone of inhibition at 1000 µg/disc (Lipomyces lipofer [11]) of 12 mm, a zone of inhibition at 1000 µg/disc (Pseudomonas aeruginosa [12]) of 11 mm and a zone of inhibition at 500 µg/disc (Aspergillus flavus [13]; NCIM 535, 72 h, read-out: DIZ) of 9 mm. For the same molecule, the zone of inhibition at 1000 µg/disc (Penicillium chrysogenum [14]) was 12 mm, the “diameter of the inhibition zone (DIZ)” value (Candida albicans [15]) was “inactive” and the MIC (Candida albicans [16]) was 125 µg/mL (≈ 545 µM). It also gave an MIC (Bacillus subtilis [17]) of 62.5 µg/mL (≈ 273 µM), a zone of inhibition at 1000 µg/disc (Escherichia coli [18]) of 10 mm and an MIC (Pseudomonas aeruginosa [19]) of 31.2 µg/mL (≈ 136 µM). For the same molecule, the zone of inhibition at 500 µg/disc (Bacillus cereus [20]) was 8 mm, the zone of inhibition at 500 µg/disc (Lipomyces lipofer [21]) was 9 mm and the “diameter of the inhibition zone (DIZ)” value (Bacillus subtilis [22]) was “inactive”. For the same molecule, the zone of inhibition at 1000 µg/disc (Rhodotorula mucilaginosa [23]) was 12 mm, the MIC (Lipomyces lipofer [24]) was 125 µg/mL (≈ 545 µM) and the zone of inhibition at 500 µg/disc (Klebsiella aerogenes [25]; NCIM 2239, 24 h, read-out: DIZ) was 10 mm. The zone of inhibition at 500 µg/disc (Rhodotorula mucilaginosa [26]) was 10 mm, the “diameter of the inhibition zone (DIZ)” value (Streptomyces albus [27]) was “inactive” and the zone of inhibition at 1000 µg/disc (Aspergillus flavus [28]) was 15 mm. The zone of inhibition at 1000 µg/disc (Candida albicans [29]) was 11 mm, the zone of inhibition at 500 µg/disc (Pseudomonas aeruginosa [30]; NCIM 2200, 24 h, read-out: DIZ) was 10 mm and the MIC (Streptomyces albus [31]) was 62.5 µg/mL (≈ 273 µM). For the same molecule, the zone of inhibition at 1000 µg/disc (Aspergillus niger [32]) was 10 mm and the zone of inhibition at 1000 µg/disc (Bacillus cereus [33]) was 11 mm.
